The text below walks through data of patent US7939536B2, “Pyrimidinylisoxazole derivatives” (Aska Pharmaceutical Co., Ltd., priority 2004, dated 2011).

The structures appear in SMILES notation.

The data set is described as follows: Measurement of the compounds' metabolic rate (human liver S9). Format: in vitro ADME. The settings on record: human liver S9 0.5 mg protein/mL, NADPH generating system, 1 μmol/L test compound, 37° C. for 5 minutes, LC/MS/MS. The method, then: (2) Measurement of the Compounds' Metabolic Rate:
Each test compound was added to potassium phosphate buffer (50 mmol/L, pH7.4) containing NADPH generating system (comprising 3.3 mmol/L MgCl2, 3.3 mmol/L glucose 6-phosphate, 1.3 mmol/L β-NADP^+ and 0.4 unit/mL glucose 6-phosphate dehydrogenase) (in which occasion the final concentration was rendered 1 μmol/L) and incubated at 37° C. for 2 minutes. After the incubation, a suspension of human liver S9(the supernatant fraction obtained by centrifuging comminuted human liver cell fluid at 9000×g) in potassium phosphate buffer was added to the system, to the final concentration of 0.5 mg protein/mL. This reaction mixture was incubated at 37° C. for 5 minutes, and to which 4 volume times the reaction mixture of acetonitrile was added, mixed, cooled with ice and centrifuged (2000×g, 10 minutes). A part of the supernatant was taken and analyzed by LC/MS/MS, to determine the remaining rate of unchanged substance in the reaction mixture. The results are shown in the following Table A, concurrently with the measured results of TNF-α production inhibition action in (1) above.
Turning to `Cc1ccc(F)c(-c2noc(NC(=O)Cc3ccccc3)c2-c2ccncn2)c1` [Example 224, 3-(2-Fluoro-5-methylphenyl)-5-(phenylacetylamino)-4-(4-pyrimidinyl)isoxazole], the “Metabolic rate (remaining rate of unchanged substance: %)” value is reported as 39.8%. The result for `Cc1cccc(-c2noc(NC(=O)Cc3ccccc3Br)c2-c2ccncn2)c1` [Example 202, 5-[(2-Bromophenyl)acetylamino]-3-(3-methylphenyl)-4-(4-pyrimidinyl)isoxazole] reads 43.6%; that for `O=C(Cc1ccccc1Cl)Nc1onc(-c2ccc(Cl)cc2)c1-c1ccncn1` [Example 61, 3-(4-Chlorophenyl)-5-[(2-chlorophenyl)acetylamino]-4-(4-pyrimidinyl)-isoxazole], 53.1%. With `COc1cccc(CC(=O)Nc2onc(-c3ccc(F)c(C)c3)c2-c2ccncn2)c1` [Example 253, 5-[(3-Methoxyphenyl)acetylamino]-3-(3-methyl-4-fluorophenyl)-4-(4-pyrimidinyl)isoxazole], the “Metabolic rate (remaining rate of unchanged substance: %)” value is recorded as 33.1%. Consider `Cc1cccc(CC(=O)Nc2onc(-c3cccc(C)c3)c2-c2ccncn2)c1` [Example 215, 3-(3-Methylphenyl)-5-[(3-methylphenyl)acetylamino]-4-(4-pyrimidinyl)isoxazole], for which the “Metabolic rate (remaining rate of unchanged substance: %)” value was 38.5%. For `O=C(Cc1ccccc1Cl)Nc1onc(-c2ccc(F)cc2)c1-c1ccncn1` [Example 5, 5-[(2-chlorophenyl)acetylamino]-3-(4-fluorophenyl)-4-(4-pyrimidinyl)isoxazole], the “Metabolic rate (remaining rate of unchanged substance: %)” value came out at 5.8%.

Turning to `Cc1cccc(CC(=O)Nc2onc(-c3ccc(F)cc3F)c2-c2ccncn2)c1` [Example 121, 3-(2,4-Difluorophenyl)-5-[(3-methylphenyl)acetylamino]-4-(4-pyrimidinyl)isoxazole], the “Metabolic rate (remaining rate of unchanged substance: %)” value came to 46.6%. The result for `Cc1cccc(-c2noc(NC(=O)Cc3ccccc3C)c2-c2ccncn2)c1` [Example 214, 3-(3-Methylphenyl)-5-[(2-methylphenyl)acetylamino]-4-(4-pyrimidinyl)isoxazole] reads 59.9%; that for `O=C(Cc1c(F)cccc1Cl)Nc1onc(-c2ccc(F)cc2)c1-c1ccncn1` [Example 13, 5-[(2-Chloro-6-fluorophenyl)acetylamino]-3-(4-fluorophenyl)-4-(4-pyrimidinyl)isoxazole], 16.1%; that for `O=C(Cc1ccccc1Cl)Nc1onc(-c2ccc(F)cc2F)c1-c1ccncn1` [Example 105, 5-[(2-Chlorophenyl)acetylamino]-3-(2,4-difluorophenyl)-4-(4-pyrimidinyl)isoxazole], 20.4%.

Consider `COc1ccc(-c2noc(NC(=O)Cc3ccccc3Cl)c2-c2ccncn2)c(F)c1` [Example 174, 5-[(2-Chlorophenyl)acetylamino]-3-(2-fluoro-4-methoxyphenyl)-4-(4-pyrimidinyl)isoxazole], for which the “Metabolic rate (remaining rate of unchanged substance: %)” value is given as 24.1%. For the compound `Cc1cc(-c2noc(NC(=O)Cc3ccccc3C)c2-c2ccncn2)ccc1F` [Example 257, 3-(3-Methyl-4-fluorophenyl)-5-[(2-methylphenyl)acetylamino]-4-(4-pyrimidinyl)isoxazole], the “Metabolic rate (remaining rate of unchanged substance: %)” value came to 52.6%. Take `Cc1cccc(-c2noc(NC(=O)Cc3ccccc3Cl)c2-c2ccncn2)c1` [Example 201, 5-[(2-Chlorophenyl)acetylamino]-3-(3-methylphenyl)-4-(4-pyrimidinyl)isoxazole]: the “Metabolic rate (remaining rate of unchanged substance: %)” value is recorded as 21.2%.
